This note sets out measurements from ChEMBL document CHEMBL2203223, “Identification of novel mPGES-1 inhibitors through screening of a chemical library” (Bioorg Med Chem Lett, 2012).

The target of one experiment is T1, Prostaglandin E synthase (Mus musculus) (UniProt Q9JM51).
T1 sequence (whole entry): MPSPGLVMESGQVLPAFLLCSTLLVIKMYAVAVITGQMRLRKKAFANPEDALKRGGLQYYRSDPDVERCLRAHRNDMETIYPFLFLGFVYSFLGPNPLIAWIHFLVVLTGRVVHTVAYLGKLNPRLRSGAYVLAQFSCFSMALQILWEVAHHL
Description: Inhibition of microsomal PGES1 in mouse RAW264.7 cells assessed as inhibition of LPS-induced PGE2 production at 1 uM incubated for 1 hr prior to LPS challenge measured after 24 hrs by enzyme immunoassay. The experiment is classed as cell-based.
Consider `O=C(Oc1ccccc1)N(NS(=O)(=O)c1ccccc1)c1ccccc1`, for which the inhibition – broadly, the drop in the measured response relative to a control, in per cent – was 59.9%.

In the next experiment the target is T1, Prostaglandin E synthase (Mus musculus). In words: Inhibition of microsomal PGES1 in mouse RAW264.7 cells assessed as inhibition of LPS-induced PGE2 production at 10 uM incubated for 1 hr prior to LPS challenge measured after 24 hrs by enzyme immunoassay. The experiment is classed as cell-based.
Consider `O=C(Oc1ccccc1)N(NS(=O)(=O)c1ccccc1)c1ccccc1`, for which the inhibition was 93.3%.

A further experiment addresses T2, Prostaglandin E synthase (Homo sapiens) (UniProt O14684).
T2 sequence (whole entry): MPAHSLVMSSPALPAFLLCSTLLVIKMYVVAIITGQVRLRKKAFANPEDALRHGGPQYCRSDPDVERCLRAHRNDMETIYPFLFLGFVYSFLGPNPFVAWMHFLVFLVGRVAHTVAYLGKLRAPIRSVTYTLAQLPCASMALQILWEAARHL
In words: Inhibition of microsomal PGES1 at 10 uM.
Consider `CN1C(=O)C(NC(=O)Nc2ccccc2Cl)N(C)C(=O)c2ccccc21` (racemic), for which the inhibition came out at 90%.
Compound `O=C1C(=O)N(c2ccccc2)c2ccccc21` yielded an inhibition of 90%.
With `Cc1cccc(NC(=S)N/N=C/c2cccc([N+](=O)[O-])c2)c1`, the inhibition was 90%.
`Cc1n[nH]c(=S)n(/N=C/c2cccc([N+](=O)[O-])c2)c1=O` displayed an inhibition of 90%.
Still for that read-out and setting: under `CNC(=O)/C(=N/OC)c1ccccc1CO/N=C(/C)c1cccc(O/C(F)=C(\c2ccc(OC)cc2)C(F)(F)F)c1` stands 90%; under `O=C(C=C1c2ccccc2-c2ccccc21)NNC(=O)N(c1ccccc1)c1ccccc1`, 90%.

The target of another experiment is T2, Prostaglandin E synthase (Homo sapiens). In words: Inhibition of microsomal PGES1 at 25 uM.
`CN1C(=O)C(N)NC(=O)c2ccccc21` (racemic): the inhibition is > 80%.
In the case of `O=C1Sc2ccccc2C1=O`, the inhibition was > 80%.
Consider `COc1ccc(OC(=O)Nc2ccccc2)cc1`, for which the inhibition is > 80%.
Still for that read-out and setting: the result for `CNC(=O)/C(=N\OC)c1ccccc1O` reads > 80%.
